According to PubChem BioAssay (NCI):
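Five compound concentrations were applied to cells in 96-well plates for 48 hours; endpoints were derived by simple linear interpolation of the resulting dose-response curve. Definition used: TGI = concentration required for complete inhibition of growth.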

How the values were obtained:
Test in all cases: NCI anticancer screen, dose series, 48 h
[1] = system: NCI-H23 lung
[2] = system: SR leukemia
[3] = system: OVCAR-8 ovarian
[4] = system: SNB-75 CNS
[5] = system: SF-295 CNS
[6] = system: HOP-92 NSCLC
[7] = system: HT29 colon
[8] = system: NCI-H522 lung
[9] = system: SNB-19 CNS
[10] = system: MCF7 breast
[11] = system: CAKI-1 renal
[12] = system: SW-620 colon
[13] = system: IGROV1 ovarian
[14] = system: A498 renal
[15] = system: OVCAR-4 ovarian
[16] = system: HL-60(TB) leukemia
[17] = system: PC-3 prostate
[18] = system: SN12C renal
[19] = system: SF-539 CNS
[20] = system: MDA-N
[21] = system: NCI-H226 lung
[22] = system: HCC-2998 colon
[23] = system: MDA-MB-435
[24] = system: DU-145 prostate
[25] = system: UACC-257 melanoma
[26] = system: HOP-62 NSCLC
[27] = system: NCI-H460 lung
[28] = system: TK-10 renal
[29] = system: KM12 colon
[30] = system: MDA-MB-231 breast
[31] = system: UACC-62 melanoma
[32] = system: MALME-3M melanoma
[33] = system: HS 578T breast
[34] = system: MOLT-4 leukemia
[35] = system: OVCAR-5 ovarian
[36] = system: HCT-15 colon
[37] = system: RXF 393 renal
[38] = system: UO-31 renal
[39] = system: SK-MEL-28 melanoma
[40] = system: COLO 205 colon
[41] = system: A549 NSCLC
[42] = system: M14 melanoma
[43] = system: SK-OV-3 ovarian
[44] = system: HCT-116 colon
[45] = system: BT-549 breast
[46] = system: OVCAR-3 ovarian
[47] = system: T-47D breast
[48] = system: ACHN renal
[49] = system: SK-MEL-5 melanoma
[50] = system: EKVX NSCLC
[51] = system: U251 CNS
[52] = system: 786-0 renal
[53] = system: K-562 leukemia
[54] = system: NCI/ADR-RES ovarian
[55] = system: RPMI-8226 leukemia
[56] = system: CCRF-CEM leukemia
[57] = system: SK-MEL-2 melanoma
[58] = system: SF-268 CNS
[59] = system: LOX IMVI melanoma

## CCOC(=O)C(C)c1nc2cc(N3CCOCC3)c(F)cc2[nH]c1=O (stereo not given)
[1]
  TGI: > 100 µM
[2]
  TGI: > 100 µM
[3]
  TGI: > 100 µM
[4]
  TGI: > 100 µM
[5]
  TGI: > 100 µM
[6]
  TGI: > 100 µM
[7]
  TGI: > 100 µM
[8]
  TGI: > 100 µM
[9]
  TGI: > 100 µM
[10]
  TGI: > 100 µM
[11]
  TGI: > 100 µM
[12]
  TGI: > 100 µM
[13]
  TGI: > 100 µM
[14]
  TGI: > 100 µM
[15]
  TGI: > 100 µM
[16]
  TGI: > 100 µM
[17]
  TGI: > 100 µM
[18]
  TGI: > 100 µM
[19]
  TGI: > 100 µM
[20]
  TGI: > 100 µM
[21]
  TGI: > 100 µM
[22]
  TGI: > 100 µM
[23]
  TGI: > 100 µM
[24]
  TGI: > 100 µM
[25]
  TGI: > 100 µM
[26]
  TGI: > 100 µM
[27]
  TGI: > 100 µM
[28]
  TGI: > 100 µM
[29]
  TGI: > 100 µM
[30]
  TGI: > 100 µM
[31]
  TGI: > 100 µM
[32]
  TGI: > 100 µM
[33]
  TGI: > 100 µM
[34]
  TGI: > 100 µM
[35]
  TGI: > 100 µM
[36]
  TGI: > 100 µM
[37]
  TGI: > 100 µM
[38]
  TGI: > 100 µM
[39]
  TGI: > 100 µM
[40]
  TGI: > 100 µM
[41]
  TGI: > 100 µM
[42]
  TGI: > 100 µM
[43]
  TGI: > 100 µM
[44]
  TGI: > 100 µM
[45]
  TGI: > 100 µM
[46]
  TGI: > 100 µM
[47]
  TGI: > 100 µM
[48]
  TGI: > 100 µM
[49]
  TGI: > 100 µM
[50]
  TGI: > 100 µM
[51]
  TGI: > 100 µM
[52]
  TGI: > 100 µM
[53]
  TGI: > 100 µM
[54]
  TGI: > 100 µM
[55]
  TGI: > 100 µM
[56]
  TGI: > 100 µM
[57]
  TGI: > 100 µM
[58]
  TGI: > 100 µM

## CC1(C)CC[C@]2(C(=O)O)CC[C@]3(C)C(=CC[C@@H]4[C@@]5(C)CC[C@H](OC6OC(C(=O)O)C(O)C(O)C6O)C(C)(C)[C@@H]5CC[C@]43C)[C@@H]2C1 (stereo not given in full)
[1]
  TGI: 37.1 µM
[2]
  TGI: 41.1 µM
[3]
  TGI: 44.9 µM
[4]
  TGI: 35.1 µM
[5]
  TGI: 28.7 µM
[6]
  TGI: 25.9 µM
[7]
  TGI: 28.4 µM
[8]
  TGI: 35.3 µM
[9]
  TGI: 48.7 µM
[10]
  TGI: 40.8 µM
[11]
  TGI: 33.7 µM
[12]
  TGI: 31.8 µM
[13]
  TGI: 35 µM
[14]
  TGI: 35.7 µM
[15]
  TGI: 33.9 µM
[16]
  TGI: 35.5 µM
[17]
  TGI: 33 µM
[18]
  TGI: 30.8 µM
[20]
  TGI: 33.8 µM
[21]
  TGI: 39.5 µM
[22]
  TGI: 38.2 µM
[23]
  TGI: 38.5 µM
[24]
  TGI: 31.4 µM
[25]
  TGI: 30.8 µM
[26]
  TGI: 33.9 µM
[27]
  TGI: 37.2 µM
[29]
  TGI: 34.7 µM
[30]
  TGI: 33.5 µM
[31]
  TGI: 33.4 µM
[32]
  TGI: 34.2 µM
[33]
  TGI: 44 µM
[34]
  TGI: 41.3 µM
[35]
  TGI: 29.7 µM
[36]
  TGI: 30.6 µM
[37]
  TGI: 31.1 µM
[38]
  TGI: 36.3 µM
[39]
  TGI: 39.7 µM
[40]
  TGI: 30.8 µM
[41]
  TGI: 39.3 µM
[42]
  TGI: 30.6 µM
[43]
  TGI: 41.6 µM
[44]
  TGI: 30.4 µM
[45]
  TGI: 40.5 µM
[46]
  TGI: 28 µM
[47]
  TGI: 36.3 µM
[48]
  TGI: 29.6 µM
[49]
  TGI: 33.2 µM
[50]
  TGI: 64.8 µM
[51]
  TGI: 28 µM
[52]
  TGI: 33.6 µM
[53]
  TGI: 37.5 µM
[54]
  TGI: 37.2 µM
[55]
  TGI: 44.4 µM
[56]
  TGI: 42.8 µM
[59]
  TGI: 35.8 µM
[57]
  TGI: 29.8 µM
[58]
  TGI: 38.6 µM
